From PubChem BioAssay (NCI)
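GI50 is the concentration that inhibits growth by half. Definition used: TGI = concentration required for complete inhibition of growth.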

What was measured:
Assay in all cases: growth of human tumour cells (NCI), 384-well format
HOP-92 NSCLC = tested on: HOP-92 NSCLC
LOX IMVI melanoma = tested on: LOX IMVI melanoma
NCI-H322M lung = tested on: NCI-H322M lung
UACC-62 melanoma = tested on: UACC-62 melanoma
HS 578T breast = tested on: HS 578T breast
SF-539 CNS = tested on: SF-539 CNS
MALME-3M melanoma = tested on: MALME-3M melanoma
NCI-H23 lung = tested on: NCI-H23 lung
PC-3 prostate = tested on: PC-3 prostate
HT29 colon = tested on: HT29 colon
HCT-15 colon = tested on: HCT-15 colon
EKVX NSCLC = tested on: EKVX NSCLC
HL-60(TB) leukemia = tested on: HL-60(TB) leukemia
SNB-75 CNS = tested on: SNB-75 CNS
M14 melanoma = tested on: M14 melanoma
T-47D breast = tested on: T-47D breast
IGROV1 ovarian = tested on: IGROV1 ovarian
OVCAR-8 ovarian = tested on: OVCAR-8 ovarian
DU-145 prostate = tested on: DU-145 prostate
COLO 205 colon = tested on: COLO 205 colon
A498 renal = tested on: A498 renal
U251 glioblastoma = tested on: U251 glioblastoma
SK-MEL-28 melanoma = tested on: SK-MEL-28 melanoma
KM12 colon = tested on: KM12 colon
RXF 393 renal = tested on: RXF 393 renal
786-0 renal = tested on: 786-0 renal
HCT-116 colon = tested on: HCT-116 colon
MDA-MB-468 breast = tested on: MDA-MB-468 breast
UO-31 renal = tested on: UO-31 renal
SN12C renal = tested on: SN12C renal
ACHN renal = tested on: ACHN renal
SK-OV-3 ovarian = tested on: SK-OV-3 ovarian
NCI/ADR-RES ovarian = tested on: NCI/ADR-RES ovarian
HOP-62 NSCLC = tested on: HOP-62 NSCLC
NCI-H522 lung = tested on: NCI-H522 lung
UACC-257 melanoma = tested on: UACC-257 melanoma
HCC-2998 colon = tested on: HCC-2998 colon
MDA-MB-435 melanoma = tested on: MDA-MB-435 melanoma
MDA-MB-231 breast = tested on: MDA-MB-231 breast
SF-268 CNS = tested on: SF-268 CNS
SF-295 CNS = tested on: SF-295 CNS
NCI-H460 NSCLC = tested on: NCI-H460 NSCLC
RPMI-8226 leukemia = tested on: RPMI-8226 leukemia
SNB-19 CNS = tested on: SNB-19 CNS
CAKI-1 renal = tested on: CAKI-1 renal
SK-MEL-5 melanoma = tested on: SK-MEL-5 melanoma
A549 NSCLC = tested on: A549 NSCLC
CCRF-CEM leukemia = tested on: CCRF-CEM leukemia
BT-549 breast = tested on: BT-549 breast
OVCAR-5 ovarian = tested on: OVCAR-5 ovarian
OVCAR-3 ovarian = tested on: OVCAR-3 ovarian
NCI-H226 lung = tested on: NCI-H226 lung
MOLT-4 leukemia = tested on: MOLT-4 leukemia
OVCAR-4 ovarian = tested on: OVCAR-4 ovarian
K-562 leukemia = tested on: K-562 leukemia
SW-620 colon = tested on: SW-620 colon
MCF7 breast = tested on: MCF7 breast
TK-10 renal = tested on: TK-10 renal

Molecule `CC1=C2C[C@H]3[C@@H](CC[C@@H]4CC(NS(C)(=O)=O)CC[C@@]43C)[C@@H]2CC[C@@]2(C1)O[C@@H]1C[C@H](C)CN[C@H]1[C@H]2C` (stereo partly specified) has a GI50 (HOP-92 NSCLC) of 3.4 µM, a TGI (HOP-92 NSCLC) of 12.7 µM and a GI50 (LOX IMVI melanoma) of 1.88 µM. It also gave a TGI (LOX IMVI melanoma) of 3.6 µM, a GI50 (NCI-H322M lung) of 10.9 µM and a TGI (NCI-H322M lung) of 22.9 µM. It also gave a GI50 (UACC-62 melanoma) of 10.7 µM, a TGI (UACC-62 melanoma) of 22.6 µM and a GI50 (HS 578T breast) of 10.8 µM. For the same molecule, the TGI (HS 578T breast) was 22.7 µM, the GI50 (SF-539 CNS) was 5.02 µM and the TGI (SF-539 CNS) was 15.9 µM. For the same molecule, the GI50 (MALME-3M melanoma) was 1.88 µM, the TGI (MALME-3M melanoma) was 3.32 µM and the GI50 (NCI-H23 lung) was 14.9 µM. For the same molecule, the TGI (NCI-H23 lung) was 28.2 µM, the GI50 (PC-3 prostate) was 3.6 µM and the TGI (PC-3 prostate) was 11.5 µM. The GI50 (HT29 colon) was 1.9 µM, the TGI (HT29 colon) was 3.55 µM and the GI50 (HCT-15 colon) was 3.89 µM. It also gave a TGI (HCT-15 colon) of 13.6 µM, a GI50 (EKVX NSCLC) of 3.44 µM and a TGI (EKVX NSCLC) of 8.77 µM. It also gave a GI50 (HL-60(TB) leukemia) of 3.3 µM, a TGI (HL-60(TB) leukemia) of 12.2 µM and a GI50 (SNB-75 CNS) of 3.82 µM. For the same molecule, the TGI (SNB-75 CNS) was 15 µM, the GI50 (M14 melanoma) was 2.49 µM and the TGI (M14 melanoma) was 5.93 µM. For the same molecule, the GI50 (T-47D breast) was 2.12 µM, the TGI (T-47D breast) was 4.28 µM and the GI50 (IGROV1 ovarian) was 1.88 µM. For the same molecule, the TGI (IGROV1 ovarian) was 3.47 µM, the GI50 (OVCAR-8 ovarian) was 13.4 µM and the TGI (OVCAR-8 ovarian) was 26.3 µM. The GI50 (DU-145 prostate) was 5.47 µM, the TGI (DU-145 prostate) was 16.6 µM and the GI50 (COLO 205 colon) was 2.46 µM. It also gave a TGI (COLO 205 colon) of 5.34 µM, a GI50 (A498 renal) of 2.99 µM and a TGI (A498 renal) of 7.76 µM. The GI50 (U251 glioblastoma) was 4.31 µM, the TGI (U251 glioblastoma) was 14.2 µM and the GI50 (SK-MEL-28 melanoma) was 3.01 µM. For the same molecule, the TGI (SK-MEL-28 melanoma) was 6.71 µM, the GI50 (KM12 colon) was 8.44 µM and the TGI (KM12 colon) was 20.6 µM. For the same molecule, the GI50 (RXF 393 renal) was 2.98 µM, the TGI (RXF 393 renal) was 9.2 µM and the GI50 ([…]-0 renal) was 2.21 µM. The TGI (786-0 renal) was 5.06 µM, the GI50 (HCT-116 colon) was 3.83 µM and the TGI (HCT-116 colon) was 12.7 µM. It also gave a GI50 (MDA-MB-468 breast) of 2.08 µM, a TGI (MDA-MB-468 breast) of 3.96 µM and a GI50 (UO-31 renal) of 3.9 µM. The TGI (UO-31 renal) was 13.7 µM, the GI50 (SN12C renal) was 3.89 µM and the TGI (SN12C renal) was 13 µM. For the same molecule, the GI50 (ACHN renal) was 2.62 µM, the TGI (ACHN renal) was 6.64 µM and the GI50 (SK-OV-3 ovarian) was 3.8 µM. The TGI (SK-OV-3 ovarian) was 10.2 µM, the GI50 (NCI/ADR-RES ovarian) was 13.7 µM and the TGI (NCI/ADR-RES ovarian) was 26.7 µM. It also gave a GI50 (HOP-62 NSCLC) of 4.47 µM, a TGI (HOP-62 NSCLC) of 15.1 µM and a GI50 (NCI-H522 lung) of 3.46 µM. The TGI (NCI-H522 lung) was 8.3 µM, the GI50 (UACC-257 melanoma) was 2.19 µM and the TGI (UACC-257 melanoma) was 3.64 µM. The GI50 (HCC-2998 colon) was 3.47 µM, the TGI (HCC-2998 colon) was 9.91 µM and the GI50 (MDA-MB-435 melanoma) was 12.4 µM. The TGI (MDA-MB-435 melanoma) was 25 µM, the GI50 (MDA-MB-231 breast) was 11.6 µM and the TGI (MDA-MB-231 breast) was 23.8 µM. It also gave a GI50 (SF-268 CNS) of 3.22 µM, a TGI (SF-268 CNS) of 9.73 µM and a GI50 (SF-295 CNS) of 13.3 µM. It also gave a TGI (SF-295 CNS) of 26.1 µM, a GI50 (NCI-H460 NSCLC) of 1.94 µM and a TGI (NCI-H460 NSCLC) of 3.61 µM. The GI50 (RPMI-8226 leukemia) was 3.72 µM, the TGI (RPMI-8226 leukemia) was 11.2 µM and the GI50 (SNB-19 CNS) was 5.22 µM. It also gave a TGI (SNB-19 CNS) of 16.4 µM, a GI50 (CAKI-1 renal) of 4.29 µM and a TGI (CAKI-1 renal) of 15.8 µM. It also gave a GI50 (SK-MEL-5 melanoma) of 1.72 µM, a TGI (SK-MEL-5 melanoma) of 3.12 µM and a GI50 (A549 NSCLC) of 4 µM. For the same molecule, the TGI (A549 NSCLC) was 14.2 µM, the GI50 (CCRF-CEM leukemia) was 1.95 µM and the TGI (CCRF-CEM leukemia) was 3.74 µM. For the same molecule, the GI50 (BT-549 breast) was 4.17 µM, the TGI (BT-549 breast) was 12.8 µM and the GI50 (OVCAR-5 ovarian) was 13.8 µM. It also gave a TGI (OVCAR-5 ovarian) of 26.8 µM, a GI50 (OVCAR-3 ovarian) of 3.97 µM and a TGI (OVCAR-3 ovarian) of 11.5 µM. It also gave a GI50 (NCI-H226 lung) of 5.5 µM, a TGI (NCI-H226 lung) of 17.6 µM and a GI50 (MOLT-4 leukemia) of 1.83 µM. The TGI (MOLT-4 leukemia) was 3.55 µM, the GI50 (OVCAR-4 ovarian) was 5.29 µM and the TGI (OVCAR-4 ovarian) was 14.8 µM. It also gave a GI50 (K-562 leukemia) of 1.83 µM, a TGI (K-562 leukemia) of 3.23 µM and a GI50 (SW-620 colon) of 13.8 µM. It also gave a TGI (SW-620 colon) of 26.8 µM, a GI50 (MCF7 breast) of 3.24 µM and a TGI (MCF7 breast) of 11.9 µM. It also gave a GI50 (TK-10 renal) of 2.75 µM and a TGI (TK-10 renal) of 7.38 µM.
